Measurements from PubChem BioAssay (NCI).
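Where inhibition never reached the appropriate level, the endpoint shown equals the highest concentration tested. Otherwise, values were interpolated linearly from a five-concentration, 48-hour dose response in 96-well plates. TGI denotes the concentration required for complete inhibition of growth.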

Assays:
Assay in all cases: NCI-60 cell line screen, 48 h
[1] = test system: K-562 leukemia
[2] = test system: NCI-H522 lung
[3] = test system: ACHN renal
[4] = test system: SK-MEL-28 melanoma
[5] = test system: A549 NSCLC
[6] = test system: SW-620 colon
[7] = test system: OVCAR-5 ovarian
[8] = test system: RPMI-8226 leukemia
[9] = test system: LOX IMVI melanoma
[10] = test system: HL-60(TB) leukemia

Row | Structure (SMILES) | TGI [1] [µM] | TGI [2] [µM] | TGI [3] [µM] | TGI [4] [µM] | TGI [5] [µM] | TGI [6] [µM] | TGI [7] [µM] | TGI [8] [µM] | TGI [9] [µM] | TGI [10] [µM]
1 | CCCC(=O)OCOC(=O)N(C)N=Nc1ccc(C(=O)OCC)cc1 | > 100 | 38 | 56.7 | > 100 | > 100 | 66.3 | > 100 | > 100 | 37 | 
2 | Nc1c(Cl)cc(-c2nc3ccccc3s2)cc1Cl | > 100 | > 100 | > 100 | > 100 | > 100 | > 100 |  |  |  | > 100
3 | FC(F)(F)c1cccnc1Sc1nc2ccccc2s1 | > 100 | > 100 | > 100 | > 100 | > 100 | > 100 | > 100 | > 100 |  | 
4 | Nc1ccc(-c2nc3ccc(F)cc3s2)cc1I | > 100 | > 100 | > 100 | > 100 | > 100 | > 100 | > 100 | > 100 | > 100 | 
5 | O=[N+]([O-])C(=C/c1cccc2ccccc12)/C(=C\c1cccc2ccccc12)[N+](=O)[O-] | > 25.9 | 3.63 | 4.21 | 4.05 | > 58.6 | 4.5 | 12.3 | 6.05 | 3.06 | 
6 | COc1ccc(NC(=O)C(=O)Cc2nc3ccc(C(=O)c4ccccc4)cc3[nH]c2=O)c([N+](=O)[O-])c1 |  | 51.4 | > 100 | > 100 | > 100 | 79.8 | > 100 |  | > 100 | 
7 | COC(=O)[C@@]1(NC(=O)C(CC(=O)OC(C)(C)C)NC(=O)OC(C)(C)C)C[C@H]1C (stereo partly drawn) | > 100 | > 100 | > 100 | > 100 | > 100 | > 100 | > 100 | > 100 | > 100 | 
8 | S=C(N/N=C/c1ccccn1)N1CCCCCC1 | > 100 | 5.9 | 1.53 | > 100 | 29.1 | > 100 | > 54.2 | 0.491 | 64.1 | 
9 | O=S(=O)(O)c1ccc2cc(N=Nc3c(O)ccc4ccccc34)ccc2c1 | > 100 | > 100 | > 100 |  | > 100 | > 100 | > 100 |  |  | > 100
10 | O=C(O)CC12CC3CC(CC(O)(C3)C1)C2 | > 100 | 59.4 | > 100 | > 100 | > 100 | > 100 | > 100 | > 100 | > 100 | 
